Assay results from patent publication US8802597B2, “Herbicidal pyrimidines” (E I du Pont de Nemours and Company, priority 2003, dated 2014).

Assays:
Assay in all cases: Test C pre/postemergence
Type in all cases: in vivo
[1] = tested on: bermudagrass (Cynodon dactylon); settings: for Bermudagrass plant response rating: scale 0 to 100 (0 no effect, 100 complete control)
Procedure, shortened: (§1)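 We sprayed seeded pots preemergence and 2–18 cm seedlings postemergence with test chemicals in a non-phytotoxic solvent mixture including surfactant. Greenhouse plants were visually compared with untreated controls at 12 to 14 days and scored 0 (no effect) to 100 (complete control).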

[2] = tested on: cocklebur (Xanthium strumarium); settings: for Cocklebur plant response rating: scale 0 to 100 (0 no effect, 100 complete control)
Procedure, shortened: as §1

[3] = tested on: common (oilseed) sunflower (Helianthus annuus); settings: Preemergence
Procedure, shortened: as §1

[4] = tested on: common ragweed (Ambrosia elatior); settings: for Ragweed plant response rating: scale 0 to 100 (0 no effect, 100 complete control)
Procedure, shortened: as §1

[5] = tested on: eastern black nightshade (Solanum ptycanthum); settings: Preemergence
Procedure, shortened: as §1

[6] = tested on: goosegrass (Eleusine indica); settings: for Goosegrass plant response rating: scale 0 to 100 (0 no effect, 100 complete control)
Procedure, shortened: as §1

[7] = tested on: johnsongrass (Sorghum halepense); settings: for Johnsongrass plant response rating: scale 0 to 100 (0 no effect, 100 complete control)
Procedure, shortened: as §1

kochia (Kochia scoparia) = settings: for Kochia plant response rating: scale 0 to 100 (0 no effect, 100 complete control)
Procedure, shortened: as §1

[8] = tested on: lambsquarters (Chenopodium album); settings: for Lambsquarters plant response rating: scale 0 to 100 (0 no effect, 100 complete control)
Procedure, shortened: as §1

[9] = tested on: pigweed (Amaranthus retroflexus); settings: for Pigweed plant response rating: scale 0 to 100 (0 no effect, 100 complete control)
Procedure, shortened: as §1

soybean (Glycine max) = settings: for Soybean plant response rating: scale 0 to 100 (0 no effect, 100 complete control)
Procedure, shortened: as §1

[10] = tested on: velvetleaf (Abutilon theophrasti); settings: for Velvetleaf plant response rating: scale 0 to 100 (0 no effect, 100 complete control)
Procedure, shortened: as §1

[11] = Postemergence, 250 g ai/ha, scale 0 to 100
[12] = Postemergence, 500 g ai/ha, scale 0 to 100
[13] = Preemergence, 62 g ai/ha, scale 0 to 100, 0 no effect, 100 complete control
[14] = Preemergence, 125 g ai/ha, scale 0 to 100
[15] = Preemergence, 250 g ai/ha, scale 0 to 100
[16] = Preemergence, 500 g ai/ha, scale 0 to 100
[17] = 62 g ai/ha, scale 0 to 100, 0 no effect, 100 complete control

Nc1nc(C2CC2)nc(C=NO)c1Br [Compound 27]
Bermudagrass plant response rating ([1]; Postemergence, 62 g ai/ha): 0
Bermudagrass plant response rating ([1]; Postemergence, 125 g ai/ha): 0
Plant response rating, Bermudagrass [1, 11]: 0
Plant response rating, Bermudagrass [1, 12]: 30
Plant response rating, Bermudagrass [1, 13]: 0
Plant response rating, Bermudagrass [1, 14]: 0
Plant response rating, Bermudagrass [1, 15]: 0
Plant response rating, Bermudagrass [1, 16]: 0
Cocklebur plant response rating ([2]; Postemergence, 62 g ai/ha): 20
Cocklebur plant response rating ([2]; Postemergence, 125 g ai/ha): 25
Plant response rating, Cocklebur [2, 11]: 25
Plant response rating, Cocklebur [2, 12]: 25
Plant response rating, Cocklebur [2, 13]: 0
Plant response rating, Cocklebur [2, 14]: 50
Plant response rating, Cocklebur [2, 15]: 70
Plant response rating, Cocklebur [2, 16]: 95
Plant response rating, Sunflower [3, 17]: 0
Plant response rating, Sunflower ([3]; 125 g ai/ha, scale 0 to 100): 20
Plant response rating, Sunflower ([3]; 250 g ai/ha, scale 0 to 100): 90
Plant response rating, Sunflower ([3]; 500 g ai/ha, scale 0 to 100): 95
Ragweed plant response rating ([4]; Postemergence, 62 g ai/ha): 5
Ragweed plant response rating ([4]; Postemergence, 125 g ai/ha): 20
Plant response rating, Ragweed [4, 11]: 40
Plant response rating, Ragweed [4, 12]: 50
Plant response rating, Ragweed [4, 13]: 20
Plant response rating, Ragweed [4, 14]: 65
Plant response rating, Ragweed [4, 15]: 85
Plant response rating, Ragweed [4, 16]: 95
Plant response rating, Nightshade [5, 17]: 0
Plant response rating, Nightshade ([5]; 125 g ai/ha, scale 0 to 100): 70
Plant response rating, Nightshade ([5]; 250 g ai/ha, scale 0 to 100): 100
Plant response rating, Nightshade ([5]; 500 g ai/ha, scale 0 to 100): 100
Goosegrass plant response rating ([6]; Postemergence, 62 g ai/ha): 0
Goosegrass plant response rating ([6]; Postemergence, 125 g ai/ha): 0
Plant response rating, Goosegrass [6, 11]: 0
Plant response rating, Goosegrass [6, 12]: 0
Plant response rating, Goosegrass [6, 13]: 0
Plant response rating, Goosegrass [6, 14]: 0
Plant response rating, Goosegrass [6, 15]: 0
Plant response rating, Goosegrass [6, 16]: 20
Johnsongrass plant response rating ([7]; Postemergence, 62 g ai/ha): 0
Johnsongrass plant response rating ([7]; Postemergence, 125 g ai/ha): 0
Plant response rating, Johnsongrass [7, 11]: 0
Plant response rating, Johnsongrass [7, 12]: 0
Plant response rating, Johnsongrass [7, 13]: 0
Plant response rating, Johnsongrass [7, 14]: 20
Plant response rating, Johnsongrass [7, 15]: 45
Plant response rating, Johnsongrass [7, 16]: 65
Kochia plant response rating (kochia (Kochia scoparia); Postemergence, 62 g ai/ha): 0
Kochia plant response rating (kochia (Kochia scoparia); Postemergence, 125 g ai/ha): 20
Plant response rating, Kochia (kochia (Kochia scoparia); [11]): 50
Plant response rating, Kochia (kochia (Kochia scoparia); [12]): 60
Plant response rating, Kochia (kochia (Kochia scoparia); [13]): 0
Plant response rating, Kochia (kochia (Kochia scoparia); [14]): 0
Plant response rating, Kochia (kochia (Kochia scoparia); [15]): 30
Plant response rating, Kochia (kochia (Kochia scoparia); [16]): 45
Lambsquarters plant response rating ([8]; Postemergence, 62 g ai/ha): 20
Lambsquarters plant response rating ([8]; Postemergence, 125 g ai/ha): 20
Plant response rating, Lambsquarters [8, 11]: 25
Plant response rating, Lambsquarters [8, 12]: 50
Plant response rating, Lambsquarters [8, 14]: 40
Plant response rating, Lambsquarters [8, 15]: 90
Plant response rating, Lambsquarters [8, 16]: 100
Pigweed plant response rating ([9]; Postemergence, 62 g ai/ha): 5
Pigweed plant response rating ([9]; Postemergence, 125 g ai/ha): 20
Plant response rating, Pigweed [9, 11]: 30
Plant response rating, Pigweed [9, 12]: 80
Plant response rating, Pigweed [9, 13]: 20
Plant response rating, Pigweed [9, 14]: 80
Plant response rating, Pigweed [9, 15]: 90
Plant response rating, Pigweed [9, 16]: 100
Soybean plant response rating (soybean (Glycine max); Postemergence, 62 g ai/ha): 30
Soybean plant response rating (soybean (Glycine max); Postemergence, 125 g ai/ha): 45
Plant response rating, Soybean (soybean (Glycine max); [11]): 85
Plant response rating, Soybean (soybean (Glycine max); [12]): 95
Plant response rating, Soybean (soybean (Glycine max); [13]): 0
Plant response rating, Soybean (soybean (Glycine max); [14]): 0
Plant response rating, Soybean (soybean (Glycine max); [15]): 20
Plant response rating, Soybean (soybean (Glycine max); [16]): 75
Velvetleaf plant response rating ([10]; Postemergence, 62 g ai/ha): 0
Velvetleaf plant response rating ([10]; Postemergence, 125 g ai/ha): 0
Plant response rating, Velvetleaf [10, 11]: 0
Plant response rating, Velvetleaf [10, 12]: 30
Plant response rating, Velvetleaf [10, 13]: 0
Plant response rating, Velvetleaf [10, 14]: 0
Plant response rating, Velvetleaf [10, 15]: 50
Plant response rating, Velvetleaf [10, 16]: 70

COC(=O)c1nc(C2CC2C)nc(N)c1Br (stereo not shown) [Compound 28]
Bermudagrass plant response rating ([1]; Postemergence, 62 g ai/ha): 0
Bermudagrass plant response rating ([1]; Postemergence, 125 g ai/ha): 0
Plant response rating, Bermudagrass [1, 11]: 0
Plant response rating, Bermudagrass [1, 12]: 0
Plant response rating, Bermudagrass [1, 13]: 0
Plant response rating, Bermudagrass [1, 14]: 20
Plant response rating, Bermudagrass [1, 15]: 30
Plant response rating, Bermudagrass [1, 16]: 35
Cocklebur plant response rating ([2]; Postemergence, 62 g ai/ha): 85
Cocklebur plant response rating ([2]; Postemergence, 125 g ai/ha): 95
Plant response rating, Cocklebur [2, 11]: 95
Plant response rating, Cocklebur [2, 12]: 100
Plant response rating, Cocklebur [2, 13]: 90
Plant response rating, Cocklebur [2, 14]: 95
Plant response rating, Cocklebur [2, 15]: 95
Plant response rating, Cocklebur [2, 16]: 100
Plant response rating, Sunflower [3, 17]: 45
Plant response rating, Sunflower ([3]; 125 g ai/ha, scale 0 to 100): 50
Plant response rating, Sunflower ([3]; 250 g ai/ha, scale 0 to 100): 100
Plant response rating, Sunflower ([3]; 500 g ai/ha, scale 0 to 100): 100
Ragweed plant response rating ([4]; Postemergence, 62 g ai/ha): 65
Ragweed plant response rating ([4]; Postemergence, 125 g ai/ha): 80
Plant response rating, Ragweed [4, 11]: 90
Plant response rating, Ragweed [4, 12]: 95
Plant response rating, Ragweed [4, 13]: 65
Plant response rating, Ragweed [4, 14]: 95
Plant response rating, Ragweed [4, 15]: 100
Plant response rating, Ragweed [4, 16]: 100
Plant response rating, Nightshade [5, 17]: 100
Plant response rating, Nightshade ([5]; 125 g ai/ha, scale 0 to 100): 100
Plant response rating, Nightshade ([5]; 250 g ai/ha, scale 0 to 100): 100
Plant response rating, Nightshade ([5]; 500 g ai/ha, scale 0 to 100): 100
Goosegrass plant response rating ([6]; Postemergence, 62 g ai/ha): 0
Goosegrass plant response rating ([6]; Postemergence, 125 g ai/ha): 0
Plant response rating, Goosegrass [6, 11]: 0
Plant response rating, Goosegrass [6, 12]: 15
Plant response rating, Goosegrass [6, 13]: 0
Plant response rating, Goosegrass [6, 14]: 0
Plant response rating, Goosegrass [6, 15]: 0
Plant response rating, Goosegrass [6, 16]: 20
Johnsongrass plant response rating ([7]; Postemergence, 62 g ai/ha): 0
Johnsongrass plant response rating ([7]; Postemergence, 125 g ai/ha): 0
Plant response rating, Johnsongrass [7, 11]: 0
Plant response rating, Johnsongrass [7, 12]: 0
Plant response rating, Johnsongrass [7, 15]: 0
Kochia plant response rating (kochia (Kochia scoparia); Postemergence, 62 g ai/ha): 75
Kochia plant response rating (kochia (Kochia scoparia); Postemergence, 125 g ai/ha): 85
Plant response rating, Kochia (kochia (Kochia scoparia); [11]): 95
Plant response rating, Kochia (kochia (Kochia scoparia); [12]): 95
Plant response rating, Kochia (kochia (Kochia scoparia); [13]): 0
Plant response rating, Kochia (kochia (Kochia scoparia); [14]): 80
Plant response rating, Kochia (kochia (Kochia scoparia); [15]): 90
Plant response rating, Kochia (kochia (Kochia scoparia); [16]): 100
Lambsquarters plant response rating ([8]; Postemergence, 62 g ai/ha): 60
Lambsquarters plant response rating ([8]; Postemergence, 125 g ai/ha): 75
Plant response rating, Lambsquarters [8, 11]: 85
Plant response rating, Lambsquarters [8, 12]: 95
Plant response rating, Lambsquarters [8, 13]: 95
Plant response rating, Lambsquarters [8, 14]: 100
Plant response rating, Lambsquarters [8, 15]: 100
Plant response rating, Lambsquarters [8, 16]: 100
Pigweed plant response rating ([9]; Postemergence, 62 g ai/ha): 30
Pigweed plant response rating ([9]; Postemergence, 125 g ai/ha): 35
Plant response rating, Pigweed [9, 11]: 60
Plant response rating, Pigweed [9, 12]: 75
Plant response rating, Pigweed [9, 13]: 80
Plant response rating, Pigweed [9, 14]: 95
Plant response rating, Pigweed [9, 15]: 100
Plant response rating, Pigweed [9, 16]: 100
Soybean plant response rating (soybean (Glycine max); Postemergence, 62 g ai/ha): 75
Soybean plant response rating (soybean (Glycine max); Postemergence, 125 g ai/ha): 85
Plant response rating, Soybean (soybean (Glycine max); [11]): 95
Plant response rating, Soybean (soybean (Glycine max); [12]): 95
Plant response rating, Soybean (soybean (Glycine max); [13]): 0
Plant response rating, Soybean (soybean (Glycine max); [14]): 45
Plant response rating, Soybean (soybean (Glycine max); [15]): 65
Plant response rating, Soybean (soybean (Glycine max); [16]): 90
Velvetleaf plant response rating ([10]; Postemergence, 62 g ai/ha): 45
Velvetleaf plant response rating ([10]; Postemergence, 125 g ai/ha): 50
Plant response rating, Velvetleaf [10, 11]: 70
Plant response rating, Velvetleaf [10, 12]: 75
Plant response rating, Velvetleaf [10, 13]: 50
Plant response rating, Velvetleaf [10, 14]: 55
Plant response rating, Velvetleaf [10, 15]: 95
Plant response rating, Velvetleaf [10, 16]: 100
